In patent US20020016443A1, “Antiproliferative factor” (priority 1996, published 2002):

Tested on: APF activity on primary normal bladder epithelial cells
Test: Blocking of APF antiproliferative activity by recombinant growth factors (^3H-thymidine incorporation)
Type: cell-based, human
Settings: co-incubation with low molecular weight IC urine fractions; HB-EGF 10, 30 and 100 ng/ml; EGF, IGF1 up to about 12 and 25 fold normal levels
Description: ^3H-Thymidine Incorporation. Primary normal adult human bladder epithelial cells (HBE) were grown from biopsies obtained at autopsy from patients who had no history of bladder disorder. HBE cells were plated at a density of 1×10^4 cells/well onto 96 well tissue culture plates and incubated at 37° C. overnight (resulting in approximately 60% confluence the following day). The medium was then changed to MEM containing only 1% glutamine and 1% antibiotic/ antimycotic solution, and the cells were incubated at 37° C. overnight. […] Cells were then trypsinized, and insoluble cell contents harvested and methanol-fixed onto glass fiber filter paper, as previously described^62; the amount of radioactivity incorporated was determined as counts per minute using a Beckman LS 3801 scintillation counter. […]
To determine whether the antiproliferative effect of the APF on bladder epithelial cells might be due to a decrease in HB-EGF production, primary normal bladder epithelial cells were simultaneously incubated with varying levels of recombinant HB-EGF, EGF, or IGF1 and low molecular weight urine fractions from IC patients. […] This effect was evident using a concentration of HB-EGF (10 ng/ml) in the range previously determined for normal controls (2-22 ng/ml, mean 6.33 ng/ml) 12 as well as higher concentrations (30 and 100 ng/ml). […]

Substance | inhibition of IC urine antiproliferative activity by recombinant growth factor
epidermal growth factor [EGF] | insufficient to completely inhibit APF activity
insulin-like growth factor 1 [IGF1] | insufficient to completely inhibit APF activity
